Data as given in patent US20240116850A1, “COMPOSITIONS AND METHODS RELATED TO BICYCLO[2.2.1] HEPTANAMINE-CONTAINING COMPOUNDS” (The Broad Institute, Inc., priority 2020, published 2024).
Entries after “also recorded” stand apart in the source; their conditions may differ.

Columns and labels:
[1] = TGA and DSC thermal characterization of salts; assay type: physicochemical; conditions: summary grade Good/Moderate/Poor
Protocol: TGA data were collected using a TA Discovery5500/Q5000 TGA from TA Instruments. DSC was performed using a TA Discovery2500/Q2000 DSC from TA Instruments.

[2] = Physical and chemical stability on storage (LC-MS and XRPD); assay type: physicochemical; conditions: for decomposition or solid form change in stability assay / Stability (matrix of results from solid form characterization): 1 week stability assay; for Solid Form after storage (XRPD) / Stability: 25/60% RH; 40 C./75% RH; 1 week / Form change?: 1 week; for Stability: 25/60% RH; 40 C./75% RH; 1 week / Form change?: BRD4780 salt solid form, 25/60% RH and 40 C./75% RH; for Stability: 25/60% RH; 40 C./75% RH; 1 week: impurities estimated by LCMS by observation of the TIC; for Form change?: solid form change (XRPD); for Stability (matrix of results from solid form characterization): summary grade Good/Moderate/Poor
Protocol: To compare the physical/chemical stability of the salt candidates, approximate 10 mg of each solid sample was added to a 5-mL glass vial covered with Parafilm® with several pin-holes on it, and then stored under 25° C./60% RH and 40° C./75% RH. After one week storage, solids were taken out for LC-MS and XRPD test to evaluate physical and chemical stability.

[3] = as above; assay type: physicochemical
[4] = Equilibrium solubility in water and bio-relevant media (SGF, FaSSIF, FeSSIF); conditions: for Solubility (matrix of results from solid form characterization): summary grade Good/Moderate/Poor; for solubility: thermodynamic from solid
[5] = Dynamic Vapor Sorption (DVS) hygroscopicity; assay type: physicochemical; conditions: for DVS (matrix of results from solid form characterization): summary grade Good/Moderate/Poor
Protocol: Dynamic Vapor Sorption (DVS) was measured via a SMS (Surface Measurement Systems) DVS Intrinsic. The relative humidity at 25° C. were calibrated against the deliquescence point of LiCl, Mg(NO3)2 and KCl.

physchem = conditions: thermodynamic from solid
[6] = Fasted State Simulated Intestinal Fluid (pH 6.5)
[7] = Fed State Simulated Intestinal Fluid (pH 5.0)
[8] = Simulated gastric fluid (pH 1.8)
[9] = water, HCl salt tested at 100 mg/mL, other salts at 50 mg/mL
[10] = fasted state simulated intestinal fluid (FaSSIF), pH 6.5, fassif, FaSSIF solubility, Fasted State Simulated Intestinal Fluid (pH 6.5)
[11] = fed state simulated intestinal fluid (FeSSIF), pH 5, fessif, FeSSIF solubility, Fed State Simulated Intestinal Fluid (pH 5.0)
[12] = simulated gastric fluid (SGF), pH 1.8, simulated gastric fluid, SGF solubility, Simulated gastric fluid (pH 1.8)
[13] = water, H2O solubility (mM; salt)
[14] = water, H2O solubility (mg/mL; salt), HCl salt tested at 100 mg/mL, other salts at 50 mg/mL

| TGA/DSC (matrix of results from solid form characterization) [1] | Solid Form after storage (XRPD) ([2]; 25° C./60% RH) | Solid Form after storage (XRPD) ([2]; 40° C./75% RH) | Stability: 25/60% RH; 40 C./75% RH; 1 week [2] | Form change? [2] | Stability (matrix of results from solid form characterization) [2] | pH ([4]; final solution in FaSSIF) | pH ([4]; final solution in FeSSIF) | pH ([4]; final solution in H2O) | pH ([4]; final solution in SGF) | Solubility (matrix of results from solid form characterization) [4] | DVS (% H2O uptake at 25 C./80% RH) ([5]; 80% RH) [%] | DVS (% H2O uptake at 25 C./95% RH) [5] [%] | hygroscopicity classification ([5]; DVS) | DVS (matrix of results from solid form characterization) [5] | solubility [4, 10] [mg/mL] | solubility [4, 11] [mg/mL] | solubility [4, 12] [mg/mL] | solubility [4, 13] [mM] | SMILES | decomposition or solid form change in stability assay [2] | other results |
| --- | --- | --- | --- | --- | --- | --- | --- | --- | --- | --- | --- | --- | --- | --- | --- | --- | --- | --- | --- | --- | --- |
| Good | HCl salt Type A | HCl salt Type A | No significant impurities | No change | Good | 6.0 | 4.8 | 4.5 | 1.8 | Good | 0.55 | 3.3 | slightly hygroscopic | Moderate | – | – | – | – | CC(C)C1C2CCC(C2)C1N.Cl (racemic) [HCl salt Type A, rac-3-exo-isopropylbicyclo[2.2.1]heptan-2-endo-amine hydrochloride, reference compound] | did not display decomposition or solid form change | new peak on LC-MS chromatogram after storage ([3]; 60° C. for 24 h): a new peak was observed; Solid Form after storage (XRPD) ([3]; 60° C., 24 h): HCl salt Type A; FaSSIF solubility [4, 6]: >71 mg/mL; FeSSIF solubility [4, 7]: >75 mg/mL; SGF solubility [4, 8]: >77 mg/mL; H2O solubility (mM; salt) ([4]; water): >405.84 mM; H2O solubility (mg/mL; salt) [4, 9]: >77 mg/mL; H2O absorption ([5]; 80% RH): 0.55 wt %; H2O absorption ([5]; 90% RH): 3.3 wt % |
| Poor | Phosphate Type A + B | Phosphate Type A + B | No significant impurities | Phosphate A | Poor | 5.1 | 4.8 | 4.4 | 3.0 | Good | 1.18 | 5.8 | hygroscopic | Poor | > 29 | > 27 | > 32 | > 163 | CC(C)[C@@H]1[C@H]2CC[C@H](C2)[C@H]1N (racemic) [Phosphate Type B] | form change observed | solubility [4, 14]: > 33 mg/mL; desorption of absorbed H2O ([5]; DVS): did not fully desorb |
| Good | Maleate Type A | Maleate Type A | No significant impurities | No change | Good | 4.6 | 4.7 | 3.8 | 4.9 | Good | 0.02 | 0.07 | not hygroscopic | Good | > 27 | > 26 | > 28 | > 92.8 | CC(C)[C@@H]1[C@H]2CC[C@H](C2)[C@H]1N.O=C(O)/C=C\C(=O)O [Maleate Type A] | did not display decomposition or solid form change | solubility [4, 14]: > 25 mg/mL |

More lines, now with the values behind:

| SMILES | TGA/DSC (matrix of results from solid form characterization) [1] | Solid Form after storage (XRPD) ([2]; 25° C./60% RH) | Solid Form after storage (XRPD) ([2]; 40° C./75% RH) | Stability: 25/60% RH; 40 C./75% RH; 1 week [2] | Form change? [2] | Stability (matrix of results from solid form characterization) [2] | pH ([4]; final solution in FaSSIF) | pH ([4]; final solution in FeSSIF) | pH ([4]; final solution in H2O) | pH ([4]; final solution in SGF) | Solubility (matrix of results from solid form characterization) [4] | DVS (% H2O uptake at 25 C./80% RH) ([5]; 80% RH) [%] | DVS (% H2O uptake at 25 C./95% RH) [5] [%] | hygroscopicity classification ([5]; DVS) | DVS (matrix of results from solid form characterization) [5] | solubility [4, 10] [mg/mL] | solubility [4, 11] [mg/mL] | solubility [4, 12] [mg/mL] | solubility [4, 13] [mM] | decomposition or solid form change in stability assay [2] | other results |
| --- | --- | --- | --- | --- | --- | --- | --- | --- | --- | --- | --- | --- | --- | --- | --- | --- | --- | --- | --- | --- | --- |
| CC(C)[C@@H]1[C@H]2CC[C@H](C2)[C@H]1N.O=C(O)/C=C/C(=O)O [Fumarate Type A] | Good | Fumarate Type A | Fumarate Type A | No significant impurities | No change | Good | 3.5 | 4.1 | 3.4 | 3.1 | Moderate | 0.15 | 0.16 | not hygroscopic | Good | 12.4 | 17.1 | 11.9 | 44.6 | did not display decomposition or solid form change | XRPD after stirring in medium ([4]; 24 hours in FeSSIF): Additional peaks in the XRPD spectra were observed; solubility [4, 14]: 12.3 mg/mL |
| CC(C)[C@@H]1[C@H]2CC[C@H](C2)[C@H]1N [L-malate Type C] | Poor | L-malate Type C | partly converted to L-malate Type B; also recorded: L-malate Type B + C | No significant impurities | Type B observed | Poor | 6.4 | 5.2 | 7.1 | 5.3 | Good | 0.18 | 0.30 | not hygroscopic | Good | – | – | – | – | form change observed | FaSSIF solubility [4, 6]: >30 mg/mL; FeSSIF solubility [4, 7]: >32 mg/mL; SGF solubility [4, 8]: >33 mg/mL; H2O solubility (mM; salt) ([4]; water): >136.17 mM; H2O solubility (mg/mL; salt) [4, 9]: >39 mg/mL |
| CC(C)[C@@H]1[C@H]2CC[C@H](C2)[C@H]1N.O=C(O)CCC(=O)O [Succinate Type A] | Good | Succinate Type A + peaks | Succinate Type A | No significant impurities | New Peaks | Moderate | 4.5 | 4.6 | 4.5 | 4.4 | – | 0.08 | 0.67 | not hygroscopic | Good | – | – | – | – | new peaks observed | solubility (physchem; pH 1.8, simulated gastric fluid, SGF solubility): > 28 mg/mL; solubility (physchem; pH 6.5, fassif, FaSSIF solubility): > 28 mg/mL; solubility (physchem; [13]): > 103 mM; solubility (physchem; water, H2O solubility (mg/mL; salt)): > 28 mg/mL; Solid Form after storage (XRPD) ([2]; 25° C./60% RH, listed as succinate Type A): new peaks were observed |
